The values that follow come from patent publication US8563715B2, “Pyrimidine derivative having cell protecting effect and uses thereof” (Zenyaku Kogyo Kabushikikaisha, priority 2008, dated 2013).

Turning to `c1ccc(N2CCN(c3nc(N4CCOCC4)cc(N4CCOCC4)n3)CC2)cc1` [Compound 1, 4,6-dimorpholino-2-(4-phenylpiperazin-1-yl)pyrimidine], the melting point lay within 182 to 184 °C.

On to `c1ccc2c(c1)CN(c1nc(N3CCOCC3)cc(N3CCOCC3)n1)C2` [Compound 10, 2-(isoindolin-2-yl)-4,6-dimorpholinopyrimidine], for which the melting point lay in the range of 194 to 198 °C.

Take `c1cnc(N2CCN(c3nc(N4CCOCC4)cc(N4CCOCC4)n3)CC2)nc1` [Compound 14, 4,6-dimorpholino-2-[4-(pyrimidin-2-yl)piperazin-1-yl]pyrimidine]: the melting point fell in the range of 212 to 215 °C.

`c1ccc(C2CN(c3nc(N4CCOCC4)cc(N4CCOCC4)n3)CCN2)cc1` (centres unmarked) [Compound 16, 4,6-dimorpholino-2-(3-phenylpiperazin-1-yl)pyrimidine] showed a melting point of 100 to 104 °C. Regarding `c1ccc(C2CN(c3cc(N4CCOCC4)nc(N4CCOCC4)n3)CCN2)cc1` (centres unmarked) [Compound 17, 2,4-dimorpholino-6-(3-phenylpiperazin-1-yl)pyrimidine], the melting point lay in the range of 181 to 185 °C. Next, `Fc1ccc(N2CCN(c3nc(N4CCOCC4)cc(N4CCOCC4)n3)CC2)cc1` [Compound 20, 2-[4-(4-fluorophenyl)piperazin-1-yl]-4,6-dimorpholinopyrimidine]: 196 to 199 °C; `Fc1ccc(N2CCN(c3cc(N4CCOCC4)nc(N4CCOCC4)n3)CC2)cc1` [Compound 21, 4-[4-(4-fluorophenyl)piperazin-1-yl]-2,6-dimorpholinopyrimidine]: 215 to 218 °C. For `Cc1ccc(N2CCN(c3nc(N4CCOCC4)cc(N4CCOCC4)n3)CC2)cc1` [Compound 22, 2-[4-(4-methylphenyl)piperazin-1-yl]-4,6-dimorpholinopyrimidine], the melting point fell in the range of 191 to 194 °C.

In turn, `CC(=O)c1ccc(N2CCN(c3nc(N4CCOCC4)cc(N4CCOCC4)n3)CC2)cc1` [Compound 24, 2-[4-(4-acetylphenyl)piperazin-1-yl]-4,6-dimorpholinopyrimidine] displayed a melting point of 162 to 166 °C. On to `CC(=O)c1ccc(N2CCN(c3cc(N4CCOCC4)nc(N4CCOCC4)n3)CC2)cc1` [Compound 25, 4-[4-(4-acetylphenyl)piperazin-1-yl]-2,6-dimorpholinopyrimidine], for which the melting point lay within 198 to 201 °C.

`Clc1ccccc1N1CCN(c2nc(N3CCOCC3)cc(N3CCOCC3)n2)CC1` [Compound 26, 2-[4-(2-chlorophenyl)piperazin-1-yl]-4,6-dimorpholinopyrimidine] gave a melting point of 156 °C.

With `CCOc1ccccc1N1CCN(c2nc(N3CCOCC3)cc(N3CCOCC3)n2)CC1` [Compound 27, 2-[4-(2-ethoxyphenyl)piperazin-1-yl]-4,6-dimorpholinopyrimidine], the melting point was 184 °C. The compound `Cc1ccccc1N1CCN(c2nc(N3CCOCC3)cc(N3CCOCC3)n2)CC1` [Compound 28, 2-[4-(2-methylphenyl)piperazin-1-yl]-4,6-dimorpholino-pyrimidine] showed a melting point of 149 °C. On to `Cc1cccc(N2CCN(c3nc(N4CCOCC4)cc(N4CCOCC4)n3)CC2)c1C` [Compound 29, 4,6-dimorpholino-2-[4-(2,3-xylyl)piperazin-1-yl]pyrimidine], for which the melting point amounted to 141 °C. The compound `Fc1ccccc1N1CCN(c2nc(N3CCOCC3)cc(N3CCOCC3)n2)CC1` [Compound 31, 2-[4-(2-fluorophenyl)piperazin-1-yl]-4,6-dimorpholinopyrimidine] came in with a melting point of 148 °C.

`COc1ccccc1N1CCN(c2nc(N3CCOCC3)cc(N3CCOCC3)n2)CC1` [Compound 32, 2-[4-(2-methoxyphenyl)piperazin-1-yl]-4,6-dimorpholinopyrimidine]: the melting point was determined as 214 °C.

In turn, `Clc1ccc(N2CCN(c3nc(N4CCOCC4)cc(N4CCOCC4)n3)CC2)cc1` [Compound 33, 2-[4-(4-chlorophenyl)piperazin-1-yl]-4,6-dimorpholinopyrimidine] gave a melting point of 213 °C.

Take `OC1(c2ccccc2)CCN(c2nc(N3CCOCC3)cc(N3CCOCC3)n2)CC1` [Compound 36, 2-(4-hydroxy-4-phenylpiperidin-1-yl)-4,6-dimorpholinopyrimidine]: the melting point is 157 to 159 °C.

`OC1(c2ccccc2)CCN(c2cc(N3CCOCC3)nc(N3CCOCC3)n2)CC1` [Compound 37, 4-(4-hydroxy-4-phenylpiperidin-1-yl)-2,6-dimorpholinopyrimidine] registered a melting point of 189 to 192 °C.

Compound `CC(=O)C1(c2ccccc2)CCN(c2nc(N3CCOCC3)cc(N3CCOCC3)n2)CC1` [Compound 38, 2-(4-acetyl-4-phenylpiperidin-1-yl)-4,6-dimorpholinopyrimidine] showed a melting point of 115 to 118 °C. As for `CC(=O)C1(c2ccccc2)CCN(c2cc(N3CCOCC3)nc(N3CCOCC3)n2)CC1` [Compound 39, 4-(4-acetyl-4-phenylpiperidin-1-yl)-2,6-dimorpholinopyrimidine], the figure is 146 to 147 °C. For `C1=C(c2ccccc2)CCN(c2nc(N3CCOCC3)cc(N3CCOCC3)n2)C1` [Compound 40, 4,6-dimorpholino-2-[4-phenyl (1,2,5,6-tetrahydropyridin-1-yl)]pyrimidine], the melting point lay within 157 to 160 °C. `C1=C(c2ccccc2)CCN(c2cc(N3CCOCC3)nc(N3CCOCC3)n2)C1` [Compound 41, 2,4-dimorpholino-6-[4-phenyl (1,2,5,6-tetrahydropyridin-1-yl)]pyrimidine] displayed a melting point of 165 to 168 °C. Compound `c1c(N2CCOCC2)nc(N2CCN(C3CCCCC3)CC2)nc1N1CCOCC1` [Compound 42, 2-[4-(4-cyclohexyl)piperazin-1-yl]-4,6-dimorpholinopyrimidine] showed a melting point of 171 to 174 °C.

`c1c(N2CCOCC2)nc(N2CCOCC2)nc1N1CCN(C2CCCCC2)CC1` [Compound 43, 4-[4-(4-cyclohexyl)piperazin-1-yl]-2,6-dimorpholinopyrimidine] returned a melting point of 144 to 147 °C.

The compound `Cc1c(N2CCOCC2)nc(N2CCN(c3ccccc3)CC2)nc1N1CCOCC1` [Compound 44, 5-methyl-4,6-dimorpholino-2-(4-phenylpiperazin-1-yl)pyrimidine] gave a melting point of 99 to 102 °C.

In turn, `Cc1c(N2CCOCC2)nc(N2CCOCC2)nc1N1CCN(c2ccccc2)CC1` [Compound 45, 5-methyl-2,4-dimorpholino-6-(4-phenylpiperazin-1-yl)pyrimidine] came in with a melting point of 149 to 152 °C. Next, `c1ccc(-c2c(N3CCOCC3)nc(N3CCN(c4ccccc4)CC3)nc2N2CCOCC2)cc1` [Compound 46, 4,6-dimorpholino-5-phenyl-2-(4-phenylpiperazin-1-yl)pyrimidine]: 163 to 165 °C. Turning to `c1ccc(-c2c(N3CCOCC3)nc(N3CCOCC3)nc2N2CCN(c3ccccc3)CC2)cc1` [Compound 47, 2,4-dimorpholino-5-phenyl-6-(4-phenylpiperazin-1-yl)pyrimidine], the melting point lay in the range of 203 to 206 °C. As for `c1ccc(Cc2c(N3CCOCC3)nc(N3CCN(c4ccccc4)CC3)nc2N2CCOCC2)cc1` [Compound 48, 5-benzyl-4,6-dimorpholino-2-(4-phenylpiperazin-1-yl)pyrimidine], the figure is 141 to 144 °C. `c1ccc(Cc2c(N3CCOCC3)nc(N3CCOCC3)nc2N2CCN(c3ccccc3)CC2)cc1` [Compound 49, 5-benzyl-2,4-dimorpholino-6-(4-phenylpiperazin-1-yl)pyrimidine] returned a melting point of 162 to 165 °C. The compound `COc1c(N2CCOCC2)nc(N2CCOCC2)nc1N1CCN(c2ccccc2)CC1` [Compound 50, 5-methoxy-2,4-dimorpholino-6-(4-phenylpiperazin-1-yl)pyrimidine] had a melting point of 118 to 120 °C.

`O=CN1CCN(c2cc(N3CCOCC3)nc(N3CCN(c4ccccc4)CC3)n2)CC1` [Compound 53, 4-(4-formylpiperazin-1-yl)-6-morpholino-2-(4-phenylpiperazin-1-yl)pyrimidine] displayed a melting point of 171 to 172 °C. `CC(=O)N1CCN(c2cc(N3CCOCC3)nc(N3CCN(c4ccccc4)CC3)n2)CC1` [Compound 54, 4-(4-acetylpiperazin-1-yl)-6-morpholino-2-(4-phenylpiperazin-1-yl)pyrimidine] gave a melting point of 171 to 172 °C. Compound `CCCCN(CCCC)c1cc(N2CCOCC2)nc(N2CCN(c3ccccc3)CC2)n1` [Compound 55, 6-dibutylamino-4-morpholino-2-(4-phenylpiperazin-1-yl)pyrimidine] showed a melting point of 84 to 85 °C. `Fc1ccccc1N1CCN(c2cc(N3CCOCC3)nc(N3CCN(c4ccccc4)CC3)n2)CC1` [Compound 58, 4-[4-(2-fluorophenyl)piperazin-1-yl]-6-morpholino-2-(4-phenylpiperazin-1-yl)pyrimidine] yielded a melting point of 90 to 91 °C. In turn, `Fc1ccccc1N1CCN(c2cc(N3CCOCC3)nc(N3CCN(c4ccccc4F)CC3)n2)CC1` [Compound 59, 2,4-bis[4-(2-fluorophenyl)piperazin-1-yl]-6-morpholinopyrimidine] had a melting point of 98 to 99 °C.

Compound `Cc1ccccc1N1CCN(c2cc(N3CCOCC3)nc(N3CCN(c4ccccc4F)CC3)n2)CC1` [Compound 60, 2-[4-(2-fluorophenyl)piperazin-1-yl]-4-[4-(2-methylphenyl)piperazin-1-yl]-6-morpholinopyrimidine] displayed a melting point of 98 to 99 °C.

With `Cc1ccccc1N1CCN(c2cc(N3CCOCC3)nc(N3CCN(c4ccccc4C)CC3)n2)CC1` [Compound 62, 2,4-bis[4-(2-methylphenyl)piperazin-1-yl]-6-morpholinopyrimidine], the melting point is 98 to 99 °C. Take `CC(=O)Nc1c(N2CCOCC2)nc(N2CCN(c3ccccc3)CC2)nc1N1CCOCC1` [Compound 77, 5-acetylamino-4,6-dimorpholino-2-(4-phenylpiperazin-1-yl)pyrimidine]: the melting point fell in the range of 229 to 230 °C.

Compound `COc1ccc(/C=C/c2nc(N3CCOCC3)c(NC(C)=O)c(N3CCOCC3)n2)cc1` [Compound 79, 5-acetylamino-2-[2-(4-methoxyphenyl)vinyl]-4,6-dimorpholinopyrimidine] returned a melting point of 189 to 191 °C.

By melting point is commonly meant the temperature, or range, at which the solid turns liquid.
